In the METLIN SMRT retention time set (Domingo-Almenara et al. 2019):

Assay: gradient 5% acetonitrile 3 min, to 50% in 2 min, to 85% in 15 min, held 3 min, 100 µL/min
Details: column: Zorbax Extend-C18 2.1 x 50 mm; eluents: water / acetonitrile, 0.1% formic acid
Procedure, shortened: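 Pure standards were run in mixtures of ~100 molecules by HPLC coupled to a quadrupole time-of-flight mass spectrometer. The column was a Zorbax Extend-C18 (2.1 × 50 mm, 1.8 μm) at 100 μL/min, with water and acetonitrile each containing 0.1% formic acid, in positive and negative ionization mode. Dead and dwell volumes were 40 μL and 900 μL. Retention time was taken from computationally picked adduct peaks, each manually inspected, with data collected over 3 months.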

RP-LC retention time [s]	Structure (SMILES)
648	Cc1cccc(CNc2cc(-n3cccn3)ncn2)c1
993	Cc1ccc(Cn2c(N3CCCC(C(=O)NCc4ccc(F)cc4)C3)nc3ccsc3c2=O)cc1 (centres undefined)
805	CCOc1ccccc1CNC(=O)Cc1nnc(-c2cccc(F)c2)o1
828	COc1ccc(OC)c(NC(=O)N2CCC(N3CCN(Cc4ccccc4)C3=O)CC2)c1
900	O=C(Cc1c(F)cccc1Cl)N1CC(c2nc(-c3ccccc3)no2)C1
1070	O=C1COc2cc(Cl)ccc2N1Cc1nc(-c2ccc3c(c2)OCO3)no1
1090	COc1ccc(Cc2nnc3sc(-c4ccc(N(C)C)cc4)nn23)cc1
817	CCN(CC)CCNC(C(=O)OCCC(C)C)c1ccccc1 (centres undefined)
679	C=CCNc1c(C(=O)OC)c(=O)[nH]c2ccc(F)cc12
702	O=C1CC(c2ccccc2F)Cc2nc(N3CCN(c4ccccn4)CC3)ncc21 (centres undefined)
816	O=C(Nc1ccc(OCc2nnc(-c3ccc(Cl)cc3)o2)cc1)c1cccnc1
1000	Fc1ccc(-c2nc(-c3cccc(-c4ccn[nH]4)c3)no2)cc1
903	COc1ccc(S(=O)(=O)N2CCCC(C)(C(=O)NCc3cccc(OC)c3)C2)cc1 (centres undefined)
588	CCN1CCCC1CN(CC(=O)N1CCNCC1)S(=O)(=O)c1c(C)cc(C)cc1C (centres undefined)
743	O=C(c1ccccc1C(F)(F)F)N1CCC2(C1)C(=O)Nc1ccccc12 (centres undefined)
738	O=C(CN1C(=O)c2ccccc2C1=O)Nc1ccc2c(c1)N(C(=O)c1ccco1)CCC2
965	CC1CCN(S(=O)(=O)c2cccn(CC(=O)OC(C)(C)C)c2=O)CC1
571	CC(=O)N[C@@H]1CN(C(=O)c2ccc3c(c2)OCO3)C[C@H]1CO
860	Cc1ccc(-n2nc(N3CCCN(S(=O)(=O)c4ccccc4F)CC3)ccc2=O)cc1
556	CCn1nccc1C(=O)N1CCN(c2ncnc3c2CCC3)CC1
737	Cc1cc(C)n(-c2nc(C)c(C(=O)Nc3ccc(N(C)C)cc3)s2)n1
639	COc1cccc(NC(=O)Nc2ccc(-c3cn4ccc(C)nc4n3)cc2)c1
762	Cc1ccc(N2CCC(NC(=O)CC(C)C)C2=O)cc1 (centres undefined)

RP-LC retention time [s]	Structure (SMILES)
706	O=C(NCC1(c2cccs2)CCOCC1)c1ccsc1
774	O=C(Cc1ccccc1)N1CCN(c2cc(-c3ccccc3)[nH]n2)CC1
832	COC(=O)c1cnc2nc(-c3ccccc3)nn2c1C
648	O=C(c1cccc(F)c1)N1CCN(c2cnn3c(C4CC4)nnc3c2)CC1
698	CCC1Oc2ccc(C)cc2N(CC(=O)NCCN2CCc3ccccc3C2)C1=O (centres undefined)
715	O=C(CCC1CCCC1)N1CCN(C(=O)c2cc(-c3ccccn3)n[nH]2)CC1
868	CC1=C(c2ccccc2)S(=O)(=O)N=C1N1CCCN(C(=O)C2CCCCC2)CC1
826	CCc1noc(NC(C)=O)c1-c1ccc(C)c(S(=O)(=O)Nc2cccc(C)c2)c1
1290	Cc1ccc(-c2ocnc2C(=O)Nc2ccc(Br)cc2F)o1
1000	O=C(Cn1ccc2ccc(N3CCOCC3)nc21)N1CCN(c2ccc(Cl)cc2)CC1
975	CCc1cccc(NC(=O)Cn2c(=O)n(-c3ccc(C)cc3)c(=O)c3c2cc(C)n3C)c1
966	Cc1ccccc1NS(=O)(=O)c1c(C)c(-c2nnc(C3CCC3)o2)n(C)c1C
820	COCCCNC(=O)C1(c2ccc(NC(=O)c3ccc(Br)cc3)cc2)CCC1
691	CCN1CCN(S(=O)(=O)c2ccc(-c3cc(C(F)(F)F)on3)o2)CC1
708	Cc1ccc(NC(=O)Cn2cnc3nc(N4CCCC(C(=O)NC5CC5)C4)sc3c2=O)c(C)c1 (centres undefined)
799	CCc1ccccc1NS(=O)(=O)c1cc(-c2[nH]ncc2C(=O)N2CCCCC2)oc1C
1050	COC(=O)c1cccc(-c2nc(C3CC(=O)N(c4ccc(F)c(Cl)c4)C3)no2)c1 (centres undefined)
822	Cc1noc2nc(C)n(CC(=O)NC3CCCc4ccccc43)c(=O)c12 (centres undefined)
1060	Cc1cc(C)c2c(-n3cccc3)nn(Cc3ccc(C(=O)NCc4ccco4)cc3)c2n1
884	Cc1noc(C2(NC(=O)Cc3ccccc3C)CCCCC2)n1
1030	CCc1cc(C(=O)Nc2ccc(OC)c(OC)c2)nc2cc(-c3ccco3)nn12
1350	CC(C)n1c(=O)oc2cc(-c3noc(-c4ccc(Br)cc4)n3)ccc21
820	CCn1cc(-c2nc(-c3ccccc3OC)no2)c(=O)c2cc(F)ccc21

RP-LC retention time [s]	Structure (SMILES)
1060	COc1ccc(C2(C(=O)Nc3cc(-c4cccs4)no3)CC2)cc1
613	Cn1ncc2c3ccccc3n(CC(=O)N3CCC(N4CCCCC4)CC3)c2c1=O
818	CCc1ccc(NC(=O)CN2CCN(Cc3ccc(F)cc3)C(=O)C2=O)cc1
764	CSc1ccc(NC(=O)COc2ccccc2)nn1
690	O=C(CSc1nccc(-c2ccc3c(c2)OCO3)n1)N1CCOCC1
571	Cc1nn2cnnc2c(C)c1CCC(=O)NCCN(C)Cc1ccccc1
800	COc1ccc(-c2nnc(COc3ccc(NC(=O)c4cnccn4)cc3)o2)cc1
658	COCCNC(=O)C1CCC(=O)N(c2ccc(OC)cc2)C1c1ccc(F)cc1 (centres undefined)
1100	O=S(=O)(c1ccccc1Cl)N1CCc2nc(-c3ccc(F)cc3)ncc2C1
618	CCN1CCN(CC2CCN(S(=O)(=O)Cc3cccc(Cl)c3)CC2)CC1
699	c1ccc(-c2nc3nccc(-c4ccncc4)n3n2)cc1
944	CCOC(=O)c1ccc(NC(=O)Cn2ccc3ccc(-c4nnc(C)o4)cc32)cc1
1110	CC1CCC(NC(=O)c2nnc(-c3ccc(S(=O)(=O)N4CCCCC4)cc3)o2)CC1 (centres undefined)
766	Cc1ccc(CNC(=O)c2cc3n(n2)CC(C)(C(=O)NCc2ccccc2)N(C)C3=O)cc1 (centres undefined)
983	CCNC(=O)c1cnn(-c2ccc(-c3nc(C(C)C)no3)cn2)c1C
1110	CCc1cc(-c2csc(S(=O)(=O)N3CCc4ccccc4C3)c2)on1
680	Cc1ccc(C(=O)Nc2ccc3c(c2)CCC(=O)N3)s1
1180	COc1ccc(-c2nnc(-c3ccc(Cl)c(S(=O)(=O)N4CCC(C)CC4)c3)o2)cc1OC
692	COc1cc(C2c3c(-c4ccc(C)cc4)n[nH]c3C(=O)N2C)ccc1O (centres undefined)
849	COc1cc(NC(=O)Cn2c(=O)n(-c3ccc(F)cc3)c3ncccc32)cc(OC)c1
733	Cc1c(Cl)cccc1S(=O)(=O)N1CCC(CN2CCCCCC2)CC1
504	COc1cccc(CN2CCC(N3C[C@H](OC)[C@@H]3c3cccnc3)CC2)n1
902	CC1Oc2ccc(S(=O)(=O)N3CCC(C(=O)Nc4ccc(F)c(Cl)c4)CC3)cc2NC1=O (centres undefined)

RP-LC retention time [s]	Structure (SMILES)
1160	O=C(NCCC1=CCCCC1)c1nnc(-c2ccc(S(=O)(=O)N3CCCCC3)cc2)o1
770	COc1ccc(Cl)cc1NC(=O)NCCc1nc2cccnc2n1CC(C)C
806	CCN(CC)C(=O)c1cc2c(s1)CCC(C(=O)N1CCC(C)CC1)C2 (centres undefined)
920	CCc1nc2c(NC(=O)c3ccc(C)cc3C)cccn2n1
646	CNC(=O)N1CCC(C2CCN(C(=O)C3CC=CC3)C2)CC1 (centres undefined)
1020	COc1ccc(N2CCN(c3cc(SCC(=O)Nc4ccc(C)cc4C)ncn3)CC2)cc1
870	CCCCNC(=O)Nc1ccccc1CC
609	CCn1ccc2cc(S(=O)(=O)N3CCCC(C(=O)N4CCN(c5ccccn5)CC4)C3)ccc21 (centres undefined)
944	Cc1cc(C)n(Cc2nc(-c3ccc(NC(=O)CCc4ccccc4)cc3)oc2C)n1
608	Cc1cc(N2CCN(C(=O)c3ccc(F)cc3)CC2)nc(N2CCOCC2)n1
846	Cc1ccnc(N2CCCC(C(=O)Nc3cc(Cl)ccc3C)C2)n1 (centres undefined)
798	Cc1cccc(NC(=O)C2CCCN2S(=O)(=O)c2cccc3nsnc23)n1 (centres undefined)
910	CC(C)c1ccc(C(=O)N2CCCC2COc2ccc(C(=O)NC3CC3)cc2)cc1 (centres undefined)
866	COc1ccc(-c2nnc(COc3cccc(NC(=O)c4ccoc4)c3)o2)cc1
775	CCS(=O)(=O)N1CCc2c(c(CN(C(=O)c3ccccc3)c3ccccc3)nn2C)C1
833	O=C(N[C@H]1C[C@@H]2C[C@H]1N(S(=O)(=O)c1cccs1)C2)c1ccccc1
856	O=C(Cn1ccn2nc(-c3ccccc3)c(CO)c2c1=O)Nc1ccc(Cl)cc1
814	O=C(CC1CCCC1)NCCn1c(=O)n(Cc2ccc(F)cc2)c2cccnc21
751	COC(=O)c1ccc2c(=O)n(-c3ccc(OC)c(OC)c3)c(N3CCCC3)nc2c1
1120	CCCc1c(C(=O)OCC)cnc2nc(-c3ccccc3)nn12
